Like-named read-outs stand apart in the source and are kept apart here. Marks after values point to notes of the source that are not given here.
Key:
[1] = system: L. braziliensis promastigotes; set-up: method as in PMID 24749923; conditions: footnote c; read-out: IC50 ± SD Promastigotes L. braziliensis; cited from earlier work
[2] = system: L. braziliensis promastigotes; test: Leishmanicidal activity on promastigotes, resazurin; assay type: cell-based, Leishmania braziliensis; conditions: for SI NCTC/ L. braziliensis: ratio IC50 mammalian cell / IC50 parasite (promastigotes); for IC50: Leishmania braziliensis, 48 h, read-out: IC50 ± SD Promastigotes L. braziliensis
Excerpt: (§1) We initially selected compounds previously reported to have anti-T. cruzi activity from our chemical library to evaluate their leishmanicidal activity. […]. To evaluate their activity in Leishmania spp., we performed a phenotypic screening using the promastigote form of L. infantum (MHOM/FR/91/LEM-2259) and L. braziliensis ([…]) (Table 1A for the thiazolidenehydrazine derivate and Table 1B for the arylideneketones family).
(§2) A culture of L. braziliensis (MHOM/BR/75/M2904) and L. infantum (MHOM/FR/91/LEM2259V) was obtained from the Facultad de Farmacia (Universidad Complutense, Madrid, Spain). The maintenance of the strains, the form of cultivation and the isolation of the shape of the promastigote were performed following the procedures described by Roldos et al.. The promastigotes were grown at 22 °C in Schneider’s Drosophila medium supplemented with 20% FBS. The assay was performed using a modification of a previous method. Promastigotes (2 × 10^6 parasites/well) were cultivated in 96-well plastic plates. Compounds were dissolved in dimethylsulfoxide (DMSO). Different dilutions of the compounds with a final volume up to 200 µL were added. After 48 h at 26 °C, 20 µL of a 2 mM resazurin solution were added, and the oxidation-reduction was quantified at 570 and 600 nm. The solution of resazurin was prepared at 2.5 mM in phosphate buffered solution (PBS), pH 7.4, and filtered through 0.22-µm membranes prior to use. All tests were carried out in triplicate. Resazurin sodium salt was obtained from Sigma-Aldrich (St. Louis, MO, USA) and stored at 4 °C protected from light. The efficacy of each compound was estimated by calculating the IC50 values. Each antiproliferative experiment was done in duplicate, and each concentration was tested in triplicate.

[3] = system: T. cruzi epimastigotes, Tulahuen 2 strain (genotype TcVI); conditions: cited from earlier work; for IC50: read-out: IC50 ± SD Epimastigotes T. cruzi; for SI J774.1/ T. cruzi: ratio IC50 mammalian cell / IC50 parasite (epimastigotes)
[4] = system: J774.1 murine macrophages; conditions: read-out: IC50 ± SD Murine Macrophages, cited from earlier work
[5] = system: T. cruzi epimastigotes, Tulahuen 2 strain (genotype TcVI); test: In vitro anti-T. cruzi activity, growth inhibition of epimastigotes; assay type: cell-based, Trypanosoma cruzi; conditions: ratio IC50 mammalian cell / IC50 parasite (epimastigotes)
Procedure: For the in vitro anti-T. cruzi activity, we used epimastigotes of the Tulahuen 2 strain (genotype TcVI) grown in an axenic milieu (BHI-Tryptose). Cells from a 5–7-day-old culture were inoculated in fresh culture milieu to give an initial concentration of 1.00 × 10^6 cells/mL. The absorbance at 600 nm of the cells in culture was measured every day. At Day 5, the milieu was inoculated with different quantities of the compounds from a stock solution in DMSO (DMSO concentration in the culture milieu never exceeded 0.4%). The control was made in the presence of 0.4% DMSO and in the absence of compounds. Each concentration of compound was evaluated in duplicate. At Day 5, the absorbance of the culture was measured and related to the control. […] Each antiproliferative experiment was done in duplicate, and each concentration was tested in triplicate.

[6] = system: L. infantum promastigotes; set-up: method as in PMID 11913540; conditions: superscript b printed; previously reported compound; read-out: IC50 ± SD Promastigotes L. infantum; cited from earlier work
cruzipain [7] = target: T1, cruzipain (Trypanosoma cruzi, UniProt P25779); conditions: at 100 µM; cited from earlier work
[8] = target: T2, triosephosphate isomerase from T. cruzi (TcTIM) (Trypanosoma cruzi, UniProt P52270); set-up: made in house; host or cells: Escherichia coli; conditions: cited from earlier work; for Percentage of Inhibition TcTIM: at 100 µM; for IC50: read-out: IC50 ± SD TcTIM
NCTC929 fibroblasts = test: Nonspecific cytotoxicity on fibroblasts, resazurin; assay type: cell-based; conditions: NCTC-929, 24 h; read-out: IC50 ± SD Fibroblast NCTC929
Procedure: To establish the selectivity of the compounds against the parasites, nonspecific cytotoxicity against mammalian cells, using J774.1 murine macrophages and fibroblast NCTC929, was studied for the most relevant derivatives. The selectivity indexes were calculated as the ratio between cytotoxicity for mammalian cells and the anti-parasitic activity (Table 2).
NCTC-Clone 929 were grown in minimal essential medium (Sigma) supplemented with 10% heat-inactivated FBS, penicillin G (100 U/mL) and streptomycin (100 µg/mL). Cell cultures were maintained at 37 °C in a humidified 5% CO2 atmosphere. The procedure for cell viability measurement was evaluated with resazurin by a colorimetric method. The cells were plated in 96 microtiter plates at 3.00 × 10^4 cells/well in 100 µL growth medium. The cells were grown overnight at 37 °C, 5% CO2. Thereafter, the medium was removed, and the compounds were added to 200 µL of medium for 24 h. After incubation, 20 µL of a 2 mM resazurin solution were added to each well. The plates were incubated for 3 h to allow optimal oxidation-reduction. The reduction of resazurin was determined by dual wavelength absorbance measurement at 490 and 595 nm. The background was subtracted. Each concentration was assayed three times. Medium and drug controls were used in each test as blanks.

[9] = system: L. infantum promastigotes; test: Leishmanicidal activity on promastigotes, resazurin; assay type: cell-based, Leishmania infantum; conditions: for IC50: Leishmania infantum, 48 h, read-out: IC50 ± SD Promastigotes L. infantum; for SI NCTC/ L. infantum: ratio IC50 mammalian cell / IC50 parasite (promastigotes)
Excerpt: as §1, §2

[10] = target: T3, LmTIM (triosephosphate isomerase from Leishmania mexicana) (Leishmania mexicana, UniProt P48499); test: Inhibition of triosephosphate isomerase; assay type: biochemical; conditions: for IC50: read-out: IC50 ± SD LmTIM; for inhibition at 100 µM: read-out: Percentage of Inhibition LmTIM
T3 construct: made in house; host or cells: Escherichia coli
Procedure: Compounds were dissolved in DMSO. […] The experiments were performed in triplicate.

T. cruzi amastigotes = system: T. cruzi amastigotes; set-up: method as in PMID 26492824, PMID 24749923, doi:10.1039/C6RA27851E; conditions: 5 µM, 72 h; cited from earlier work
[11] = target: T2, triosephosphate isomerase from T. cruzi (TcTIM); test: Inhibition of triosephosphate isomerase; conditions: read-out: Percentage of Inhibition TcTIM
Procedure: Expression and purification of proteins: TcTIM, LmTIM and HsTIM were expressed in Escherichia coli and purified as described in the literature [39]. […] Before use, extensive dialysis against 100 mM triethanolamine/10 mM EDTA (pH 7.4) was performed.
Enzymatic activity assays: Enzymatic activity was determined following the conversion of glyceraldehyde 3-phosphate into dihydroxyacetone phosphate. […] The reaction mixture (1 mL, pH 7.4) contained 100 mM triethanolamine, 10 mM EDTA, 0.2 mM NADH, 1 mM glyceraldehyde 3-phosphate and 0.9 units of α-glycerol phosphate dehydrogenase. The reaction was initiated by the addition of 5 ng/mL of the TcTIM.
The mixture also contained the compounds at the indicated concentrations. Compounds were dissolved in DMSO. After 2 h, 10 µL was withdrawn and added to a final volume of 100 µL of the reaction mixture for the activity assay. The inhibition assay was performed in a 96-well microplate Varioskan spectrophotometer. […] The experiments were performed in triplicate.

cruzipain [12] = target: T1, cruzipain; test: Inhibition of T. cruzi cruzipain; assay type: biochemical
Procedure: Cruzipain was purified to homogeneity from epimastigotes of the Tulahuen 2 strain by ConA–Sepharose affinity chromatography, as previously described. Cruzipain (2.5 μM ε = 58,285 M^−1cm^−1) was incubated in 50 mM acetate buffer pH 5.5 with 5 mM DTT, and 100 μM inhibitor were added, shaking the solution for 15 min at 27 °C. The derivatives were added as solutions in DMSO, and the controls contained the same solvent concentration. The concentration of DMSO never exceeded 1% in the reaction medium. L-leucylam-ido(4-guanidino)butane (E-64) was used as a positive control of inhibition. Then, the fluorogenic substrate Z-Phe-Arg 7-amido-4-methylcoumarin hydrochloride (Z-Phe-Arg-AMC) at 10 μM was added, and the fluorescence was measured during 10 min at intervals of 3 s (excitation at 380 nm and emission at 460 nm) using a Varioskan Flash Spectrophotometer. From the slope of the negative control, we calculated the total (100%) enzyme activity, while the slopes obtained in the presence of the compounds yielded the percentage of remaining enzyme activity. The percentage of enzyme inhibition was determined as […]. The experiments were done in duplicate.

zebrafish embryos = test: Zebrafish embryo toxicity test (LD50)
Procedure: […] Only embryos that were clearly undamaged after 60 min of observation were kept and subsequently used. Dechorionated embryos were further manipulated using flame-rounded tip glass Pasteur pipettes. […] In all cases, the embryos were incubated in system water with 1% DMSO (negative control) and the compound at different doses between 8 and 96 hpf. The treatment solution was changed daily. […] At selected time points, namely 24, 48, 72 and 96 hpf, embryotoxicity (= mortality) and morphological characteristics of the embryos were evaluated using a Nikon SMZ800 stereomicroscope. The embryos were evaluated for the presence and morphological development (as appropriate) of somites, tail detachment, eyes, heart beat and blood circulation. All individuals were evaluated at all time points.

T. cruzi = conditions: 100 mg/kg body weight in mice, acute model; cited from earlier work

T3 sequence (P48499 whole entry): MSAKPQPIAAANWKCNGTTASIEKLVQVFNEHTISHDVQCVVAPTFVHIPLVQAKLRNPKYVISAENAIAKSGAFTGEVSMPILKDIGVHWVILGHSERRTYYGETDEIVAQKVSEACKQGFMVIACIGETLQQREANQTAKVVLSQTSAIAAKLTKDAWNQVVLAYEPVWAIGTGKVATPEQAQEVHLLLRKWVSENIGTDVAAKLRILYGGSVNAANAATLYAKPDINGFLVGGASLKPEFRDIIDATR
T2 sequence (P52270 whole entry): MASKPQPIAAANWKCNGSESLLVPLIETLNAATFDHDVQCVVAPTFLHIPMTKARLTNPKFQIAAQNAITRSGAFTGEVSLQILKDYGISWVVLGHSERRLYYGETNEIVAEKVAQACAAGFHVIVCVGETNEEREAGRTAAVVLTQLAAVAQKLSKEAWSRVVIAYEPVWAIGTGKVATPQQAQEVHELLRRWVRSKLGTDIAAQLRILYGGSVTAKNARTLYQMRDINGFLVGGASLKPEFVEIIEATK
T1 sequence (P25779 123-467): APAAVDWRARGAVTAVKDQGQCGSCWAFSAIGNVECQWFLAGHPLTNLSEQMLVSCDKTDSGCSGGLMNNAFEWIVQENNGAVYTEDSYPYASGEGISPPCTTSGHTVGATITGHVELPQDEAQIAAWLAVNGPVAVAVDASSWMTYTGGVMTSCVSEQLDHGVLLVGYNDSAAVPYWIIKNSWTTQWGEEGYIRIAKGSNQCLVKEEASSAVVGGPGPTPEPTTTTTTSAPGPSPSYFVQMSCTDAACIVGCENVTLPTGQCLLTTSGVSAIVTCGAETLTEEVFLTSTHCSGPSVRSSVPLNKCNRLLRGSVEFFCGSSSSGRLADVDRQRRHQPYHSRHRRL

| SMILES | SI NCTC/ L. braziliensis [2] | IC50 [3] [µM] | IC50 [4] [µM] | SI J774.1/ T. cruzi [5] | Percentage of Inhibition Cruzipain (cruzipain [7]) | Percentage of Inhibition TcTIM [8] | IC50 [8] [µM] | IC50 [2] [µM] | SI J774.1/ T. cruzi [3] | IC50 (NCTC929 fibroblasts) [µM] | IC50 [9] [µM] | SI NCTC/ L. infantum [9] | IC50 ([4]; J774.1) [µM] | IC50 [10] [µM] | inhibition at 100 µM [10] [%] | other results |
| --- | --- | --- | --- | --- | --- | --- | --- | --- | --- | --- | --- | --- | --- | --- | --- | --- |
| O=C1/C(=C/c2cccc3cnccc23)CC/C1=C\c1cccc2cnccc12 [Comp13, reference compound] | 23 | 31 ± 2 | 21 ± 5 | 1 |  |  |  |  |  |  |  |  |  |  |  | IC50 [1]: 0.9 ± 0.2 µM |
| COc1cc(/C=C/C(=O)CC(=O)/C=C/c2ccc(O)c(OC)c2)ccc1O [Curcumin, reference compound] | 2 | 5.6 ± 1 | 10 ± 2 | 2 |  |  |  |  |  |  |  |  |  |  |  | IC50 [6]: 5.9 ± 0.3 µM |
| CC(/C=C/C(=O)/C=C/C(C)=C/c1ccco1)=C\c1ccco1 [EA155] | 34 | 8.2 ± 2 |  |  | 0/- ^d | 100 | 3.3 | 16 ± 2 | 4 ^c | 543 ± 15 | 6 ± 1 | 91 | 33 ± 8 | < 25 | 100 |  |
| C=CCn1c(C(=O)N2CCN(C/C=C/c3ccccc3)CC2)cs\c1=N/N=C/C=C/c1ccco1 [HIT1] | 29 | 3.1 ± 0.2 |  | 10 |  |  |  | 12 ± 5 |  | 346 ± 9 | 4 ± 1 | 87 | 30 ± 5 |  | 0 | Amastigotes in infected Vero cell culture after treatment (T. cruzi amastigotes): cytosol without amastigotes; inhibition at 100 µM [11]: 0%; inhibition at 100 µM (cruzipain [12]; at 100 µM, read-out: Percentage of Inhibition Cruzipain): 100%; IC50 (cruzipain [12]; pool of cruzipain isoforms obtained from T. cruzi, read-out: IC50 ± SD Cruzipain): 4.3 µM; LD50 without chorion (zebrafish embryos; dechorionated zebrafish embryos, 72 h incubation): 61 ± 2 µM; LD50 with chorion (zebrafish embryos; zebrafish embryos with chorion): > 100 µM; Reduction of the parasitemia (T. cruzi): 70% |
| O=C1/C(=C/C=C/c2ccco2)CCC/C1=C\C=C\c1ccco1 [HIT2] | 23 | 0.6 ± 0.2 |  |  | 80 | 100 | 0.086 | 7 ± 1 | 17 ^c | 160 ± 9 | 13 ± 7 | 12 | 10 ± 2 | < 25 | 100 |  |

Reference: paper PMC6154605, “Multi-Anti-Parasitic Activity of Arylidene Ketones and Thiazolidene Hydrazines against Trypanosoma cruzi and Leishmania spp” (Molecules : A Journal of Synthetic Chemistry and Natural …, 2017)
